Reference: US9951055B2, “Thiazole-based inhibitors of scavenger receptor BI” (THE BROAD INSTITUTE, INC., priority 2012, dated 2018)
Entries after “also recorded” stand apart in the source; their conditions may differ. Counter-ions that a name gives are not always drawn. Like-named read-outs stand apart in the source and are kept apart here. Blank lines part the entries; values can stand above or below the compound they belong to.

Columns and labels:
[1] = test system: Jc1 378-1 TagRFP reporter HCV virus; assay: In vitro inhibition of HCV in Huh-7.5 cells; format: cell-based, hepatitis C virus; settings: for inhibition of HCV replication: Huh-7.5 cells, MOI=0.1, 3 dpi; for mean fluorescence intensity (MFI) of HCV positive cells: normalized to DMSO control
Method: The compound of formula (II) was also tested for the in vitro inhibition of HCV. Huh-7.5 cells were seeded in a 24-well plates (50,000 cells/well) and incubate over night. The medium was changed to compound/solvent containing medium 2 hours prior to infection (200 μL/well) with a reporter HCV virus called Jc1 378-1 TagRFP. A dilute virus stock was used to infect at a MOI of 0.1 (7,500 IU/well) in 10 μL medium. 10 μL of virus dilution was added to the wells containing compound/solvent (thereby dilution the compounds by only ˜5%). Infections were incubated for 4 hours before washing off the inoculum 1× with 500 μL medium. Fresh compound/solvent containing medium was added to the cells (500 μL/well), and further incubated for 48-72 hours. Cells were harvested at 48-72 hpi and viral replication was determined by fixing the cells and measuring replication by FACS (fluorescence activated cell sorting). Controls having antibodies that neutralize HCV by blocking E2 (2 μg/mL) and controls having antibodies that block a HCV receptor CD81 (2 μg/mL) were used.
A series of tests were conducted using the compound of Formula II ML278), other known inhibitors of SRB1 and controls with cells infected with hepatitis C virus (HCV). The cells (Huh-7.5 cells infected with Jc1 378-1 TagRFP (MOI=0.1) 3 dpi) were treated with the following SR-BI compounds and controls:
Three different infection protocols were followed: (1) no wash—virus inoculum was removed 4 hpi and fresh medium containing compounds added without washing cells; (2) 5× wash—virus inoculum was removed 4 hpi, cells were washed 5× with PBS and fresh medium containing compounds added; and (3) no wash Opt—infection were performed in serum-free OptiMem; virus inoculum was removed 4 hpi and fresh medium containing compounds added without washing cells. FIG. 107 provides a comparison of the three different infection set-ups. FIG. 108 provides a comparison of two independent experiments.

murine SR-BI = biological target: T1, murine SR-BI (Mus musculus, UniProt Q61009); assay: DiI-HDL uptake assay (primary assay); format: cell-based
T1 construct: expressed in transfected cells; host or cells: ldlA[mSR-BI]; (CHO ldlA7 derivative lacking the LDL receptor)
T1 sequence (Q61009 1-509): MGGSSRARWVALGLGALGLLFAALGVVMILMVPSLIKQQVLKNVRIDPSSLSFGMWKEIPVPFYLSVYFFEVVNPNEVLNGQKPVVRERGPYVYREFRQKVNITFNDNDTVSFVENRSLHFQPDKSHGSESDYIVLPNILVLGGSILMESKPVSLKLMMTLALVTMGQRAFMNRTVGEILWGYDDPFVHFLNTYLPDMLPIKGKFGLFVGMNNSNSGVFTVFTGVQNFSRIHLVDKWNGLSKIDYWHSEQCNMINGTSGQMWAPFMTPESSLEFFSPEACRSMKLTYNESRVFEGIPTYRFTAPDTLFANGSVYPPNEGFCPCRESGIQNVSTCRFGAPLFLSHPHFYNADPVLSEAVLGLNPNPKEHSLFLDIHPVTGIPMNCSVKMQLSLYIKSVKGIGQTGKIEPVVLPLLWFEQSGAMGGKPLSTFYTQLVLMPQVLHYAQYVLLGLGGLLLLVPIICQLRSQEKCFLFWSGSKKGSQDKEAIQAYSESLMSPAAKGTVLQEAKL
Excerpt: The following cell lines were used in this study: • ldlA[mSR-BI] is a Chinese hamster ovary (CHO) cell line that overexpresses murine SR-BI, isoform 1 (NP_058021) and was obtained from the Assay Provider (Krieger Laboratory). This cell line was used for the primary assay and several secondary assays. […] This cell line was obtained from the Assay Provider. Assays DiI-HDL Uptake Assay (Primary Assay AID Nos. 488896, 493194, 540354 588392, 588553, 588548, 588754, 588828, 588833)
ldlA[mSR-BI]cells were plated into 384-well plates at 30 μl per well and incubated overnight. As a measurable surrogate for cholesterol uptake, human HDL particles were treated with the lipophilic fluorescent dye DiI and exposed to ldlA[mSR-BI]cells in lipoprotein-free media (Ham's F12/0.5% fatty acid-free Bovine Serum Albumin (BSA)/25 mM HEPES pH 7.4 plus 10 μg protein/ml DiI-HDL). Cells took up the DiI via SR-BI over 3 hours in the presence of compound. After significant uptake of the DiI, the cells became fluorescent. The level of fluorescence correlates with the amount of DiI uptake and can be measured with a standard plate reader (here a PerkinElmer EnVision plate reader was used). The uptake of lipid (represented by DiI) was inhibited by the positive control compound BLT-1 or with an excess of HDL untreated with DiI. Primary HTS data were analyzed in Genedata Screener Assay Analyzer, and were normalized against DMSO and the positive control (1 μM BLT-1). For the HTS, the average of two replicates was used to rank order activity and to choose compounds for retests. For dose studies, percent (%) activity was determined for each concentration and the concentration response curves (CRCs) were generated with Genedata Condeseo.
To identify novel inhibitors, SR-BI-mediated lipid uptake was measured in an engineered cell line that minimized potential uptake by other mechanisms, including via the LDL receptor (1). ldlA[mSR-BI]cells overexpress murine isoform 1 and selectively take up HDL lipid at similar levels as “has been reported for cultured mouse adrenal cells, perfused organs, and liver, adrenal gland and ovary in vivo” (1). This primary cell-based assay was used in a pilot screen that identified BLTs 1 through 5 (12). The assay was slightly modified from the original protocol of Nieland et al. to increase throughput and to ease automation procedures.

[2] = test system: endocytosis of transferrin; assay: Transferrin endocytosis assay; format: cell-based
Excerpt: Transferrin Endocytosis Assay (SA 3: AID No. 602134) This assay measures the endocytosis of an independent ligand, transferrin, which is not taken up via SR-BI but by clathrin-mediated endocytosis. This assay provides a measure of the selectivity of the inhibitors. Alexa-594-labeled transferrin is taken into the cell via endocytosis and localization of labeled transferrin was quantitated in the various intracellular compartments. […] Inhibitors of interest should act selectively at SR-BI and should have no activity in this assay. Cells were pre-treated with compound for 3 hours and then treated with the Alexa-594 transferrin reagent for 30 minutes (Catalog No. T-13343; Invitrogen) in serum-free media. Plates of cells were then placed onto ice, washed with ice cold PBS, and then fixed with 4% paraformaldehyde. In addition, the nuclei were stained with 300 nM 4′,6-diamidino-2-phenylindole (DAPI) (Catalog No. 21490; Invitrogen). The cells were imaged with the Molecular Devices IXM microscope (FIG. 22). Translocation measurements were performed using MetaExpress software and normalized for cell number.

Structure (SMILES): CC(=O)Nc1ccc(Cl)c(C(=O)Nc2ccc(N3CCN(C(=O)OC(C)(C)C)CC3)cc2)c1 [Compound R-154716]
- inhibition of HCV replication ([1]; listed as SRB1-2): inhibited viral replication; also recorded: able to inhibit HCV replication
- mean fluorescence intensity (MFI) of HCV positive cells [1]: increased mean fluorescence intensity (MFI) of HCV positive cells in a dose dependent manner

- IC50 (murine SR-BI; range, read-out: range of IC50 for HDL-mediated lipid uptake): 0.93 to 6 nM
Structure (SMILES): CCC(=O)N1CCc2cc(-c3csc(NC(=O)c4ccco4)n3)ccc21 [MLS001217863]
- endocytosis of transferrin [2]: not grossly perturbing cellular membrane trafficking pathways

Structure (SMILES): COc1c(NC(=O)C(=O)c2ccc(OCCN3CCOCC3)c3ccccc23)cc(C(C)(C)C)cc1NS(C)(=O)=O [ITX-5061]
- inhibition of HCV replication ([1]; listed as SRB1-9): inhibited viral replication; also recorded: able to inhibit HCV replication
- mean fluorescence intensity (MFI) of HCV positive cells [1]: this increase was not seen

- IC50 (murine SR-BI; read-out: IC50, DiI-HDL uptake): 0.9 nM
Structure (SMILES): COc1cc(OC)cc(C(=O)Nc2nc(-c3ccc4c(c3)CCN4C(=O)OC(C)(C)C)cs2)c1 [Boc carbamate, tert-Butyl 5-(2-(3,5-dimethoxybenzamido)thiazol-4-yl)indoline-1-carboxylate]

Structure (SMILES): COc1cc(OC)cc(C(=O)Nc2nc(-c3ccc4c(c3)CCN4)cs2)c1 [N-(4-(Indolin-5-yl)thiazol-2-yl)-3,5-dimethoxybenzamide, trifluoroacetic acid salt]
- loss of activity/potency relative to parent analog (murine SR-BI): approximately 3 fold
